Test results: PubChem BioAssay (NCI)
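Grown in 96-well plates, cells were treated for 48 hours with each compound at five concentrations. Insufficient inhibition: endpoint recorded as highest concentration tested. GI50 = concentration required for 50% inhibition of growth. TGI: concentration producing complete growth inhibition.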

Experiments:
Assay in all cases: NCI-60 cell line screen, 48 h
OVCAR-5 ovarian = system: OVCAR-5 ovarian
A549 NSCLC = system: A549 NSCLC
CAKI-1 renal = system: CAKI-1 renal
K-562 leukemia = system: K-562 leukemia
U251 CNS = system: U251 CNS
NCI-H460 lung = system: NCI-H460 lung
NCI-H23 lung = system: NCI-H23 lung
IGROV1 ovarian = system: IGROV1 ovarian
SF-295 CNS = system: SF-295 CNS
UO-31 renal = system: UO-31 renal

Compound	GI50 (OVCAR-5 ovarian)	TGI (OVCAR-5 ovarian)	GI50 (A549 NSCLC)	TGI (A549 NSCLC)	GI50 (CAKI-1 renal)	TGI (CAKI-1 renal)	GI50 (K-562 leukemia)	TGI (K-562 leukemia)	GI50 (U251 CNS)	TGI (U251 CNS)	GI50 (NCI-H460 lung)	TGI (NCI-H460 lung)	GI50 (NCI-H23 lung)	TGI (NCI-H23 lung)	GI50 (IGROV1 ovarian)	TGI (IGROV1 ovarian)	GI50 (SF-295 CNS)	TGI (SF-295 CNS)	GI50 (UO-31 renal)	TGI (UO-31 renal)
C[C@]12CCc3nc(Nc4cccc(O)c4)sc3C1=CC[C@@H]1[C@@H]2CC[C@]2(C)/C(=N\NC(N)=S)CC[C@@H]12	2600 nM	7770 nM	2950 nM	11400 nM	1640 nM	3260 nM	2150 nM	> 100000 nM	1150 nM	2960 nM	1960 nM	4050 nM	2780 nM	8960 nM	2310 nM	6250 nM	1200 nM	3110 nM	1400 nM	2830 nM
Nc1nc2c(ncn2C2CCC(CO)O2)c(=O)n1C(=O)c1ccccc1 (stereo not drawn)		> 100000 nM		> 100000 nM		> 100000 nM		> 100000 nM		> 100000 nM		> 100000 nM		> 100000 nM		> 100000 nM		> 100000 nM		> 100000 nM
N#Cc1c(NC(=O)NCc2ccccc2)sc2c1CCCC2	2390 nM	> 100000 nM	731 nM	> 100000 nM	776 nM	> 100000 nM	430 nM	> 100000 nM	660 nM	> 81700 nM	407 nM	> 100000 nM	1180 nM	> 26300 nM	749 nM	> 100000 nM	549 nM	37700 nM	740 nM	> 100000 nM
COC(=O)C(=O)C(C(=O)C(=O)Nc1cccc(C(C)=O)c1)c1nc2ccc([N+](=O)[O-])cc2[nH]c1=O (stereo not drawn)		> 100000 nM		> 100000 nM		> 100000 nM		> 100000 nM		> 100000 nM		> 100000 nM		> 100000 nM		> 100000 nM		> 100000 nM		> 100000 nM
C[C@]12CC[C@@H]3c4cc(OC(F)F)c(O)cc4CC[C@H]3[C@@H]1CC[C@@H]2OS(N)(=O)=O	3510 nM	> 100000 nM	968 nM	> 100000 nM	548 nM	> 70200 nM	380 nM	> 100000 nM	549 nM	19500 nM	422 nM	15400 nM	1460 nM	50800 nM	687 nM	> 100000 nM	330 nM	3020 nM	1110 nM	37600 nM
COC1C(CO)OC(n2c3ccccc3c3c4c(c5c6ccccc6[nH]c5c32)C(=O)NC4=O)C(O)C1O (stereo not drawn)	270 nM	2240 nM	621 nM		< 18.4 nM	93.7 nM	< 14.5 nM		< 10 nM	141 nM	848 nM	6610 nM	95.1 nM	1120 nM	84.4 nM	3490 nM	129 nM	673 nM	173 nM	676 nM
CC(=O)Nc1ccccc1-c1nc2ccccc2nc1C		> 100000 nM		> 100000 nM		> 100000 nM		> 100000 nM		> 100000 nM		> 100000 nM		> 100000 nM		> 100000 nM		> 100000 nM		> 100000 nM
O=c1cc(-c2ccccc2)oc2ccc(OC/C(=N/O)c3ccccc3)cc12	43800 nM	> 50000 nM	3000 nM	> 50000 nM	1790 nM	16200 nM	2530 nM	> 50000 nM	2350 nM	> 50000 nM	1970 nM	16900 nM	2400 nM	> 50000 nM	7620 nM	> 50000 nM	1250 nM	3340 nM	4340 nM	> 50000 nM
